± gives the expanded uncertainty stated by the source.
Columns and labels:
[1] = 298.2 K; 101.33 kPa; Liquid; Vibrating tube method
[2] = refractive index (Na D-line) (dimensionless); conditions: 298.2 K; 101.33 kPa; Liquid; Standard Abbe refractometry
[3] = wn = mass fraction of the nth substance listed; conditions: 298.2 K; 100 kPa; Liquid; Vibrating tube method; w1 = 0.85
[4] = refractive index (Na D-line) (dimensionless); wn = mass fraction of the nth substance listed; conditions: 298.2 K; 100 kPa; Liquid; Standard Abbe refractometry; w1 = 0.85

Row | mass density [1] [kg/m3] | refractive index [2] | mass density [3] [kg/m3] | refractive index [4] | Compound
1 | 803.77 ± 2.1 | 1.4101 ± 0.003 | – | – | CC(C)CC(C)O (configuration not stated) [4-methyl-2-pentanol]
2 | 805.3 ± 2.1 | 1.4049 ± 0.003 | – | – | CCCC(C)O (configuration not stated) [pentan-2-ol]
3 | – | 1.3325 ± 0.003 | – | – | O [water]
4 | – | – | 1682.7 ± 2.2 | 1.432 ± 0.003 | O=P(O)(O)O [phosphoric acid] + O

From the NIST ThermoML archive (doi:10.1016/j.jct.2019.04.005)
